Assay in all cases: Kinase panel profiling at 1 µmol/L (MSA or IMAP), percentage inhibition
Assay type in all cases: biochemical

Test [1] deals with panel of 255 wild-type kinases (Homo sapiens, UniProt Q14289). The settings on record: read-out: %-inhibition at 1 µmol/L, PYK2.
The target in test [2] is T1, panel of 255 wild-type kinases (Homo sapiens, UniProt P21709).
T1 sequence (P21709 26-976): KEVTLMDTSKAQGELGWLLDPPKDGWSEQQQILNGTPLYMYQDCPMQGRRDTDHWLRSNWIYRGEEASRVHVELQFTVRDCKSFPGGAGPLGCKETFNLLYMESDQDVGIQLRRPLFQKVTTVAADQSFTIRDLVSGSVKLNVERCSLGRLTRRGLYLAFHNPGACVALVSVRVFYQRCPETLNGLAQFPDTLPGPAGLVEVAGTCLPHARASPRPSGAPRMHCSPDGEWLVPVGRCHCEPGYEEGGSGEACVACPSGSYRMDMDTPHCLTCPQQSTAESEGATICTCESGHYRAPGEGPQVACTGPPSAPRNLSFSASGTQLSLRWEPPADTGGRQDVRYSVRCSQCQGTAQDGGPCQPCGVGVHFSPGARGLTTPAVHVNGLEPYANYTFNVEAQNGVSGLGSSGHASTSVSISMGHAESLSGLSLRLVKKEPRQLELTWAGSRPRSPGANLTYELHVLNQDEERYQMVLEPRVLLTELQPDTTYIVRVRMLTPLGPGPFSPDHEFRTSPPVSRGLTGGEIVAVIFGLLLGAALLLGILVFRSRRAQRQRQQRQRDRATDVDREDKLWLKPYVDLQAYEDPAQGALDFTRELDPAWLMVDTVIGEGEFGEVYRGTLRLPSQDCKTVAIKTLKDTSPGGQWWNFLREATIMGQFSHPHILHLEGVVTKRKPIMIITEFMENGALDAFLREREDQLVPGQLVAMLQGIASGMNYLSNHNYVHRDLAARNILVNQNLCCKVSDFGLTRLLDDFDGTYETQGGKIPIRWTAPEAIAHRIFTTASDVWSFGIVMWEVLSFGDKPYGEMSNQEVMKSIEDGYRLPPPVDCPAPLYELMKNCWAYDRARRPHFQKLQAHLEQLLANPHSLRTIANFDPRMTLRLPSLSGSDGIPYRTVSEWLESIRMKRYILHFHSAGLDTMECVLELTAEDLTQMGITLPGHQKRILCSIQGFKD
The note with it: read-out: %-inhibition at 1 µmol/L, EPHA1.

For test [3], the target named is T2, panel of 255 wild-type kinases (Homo sapiens, UniProt Q8TF76).
T2 sequence (Q8TF76 1-798): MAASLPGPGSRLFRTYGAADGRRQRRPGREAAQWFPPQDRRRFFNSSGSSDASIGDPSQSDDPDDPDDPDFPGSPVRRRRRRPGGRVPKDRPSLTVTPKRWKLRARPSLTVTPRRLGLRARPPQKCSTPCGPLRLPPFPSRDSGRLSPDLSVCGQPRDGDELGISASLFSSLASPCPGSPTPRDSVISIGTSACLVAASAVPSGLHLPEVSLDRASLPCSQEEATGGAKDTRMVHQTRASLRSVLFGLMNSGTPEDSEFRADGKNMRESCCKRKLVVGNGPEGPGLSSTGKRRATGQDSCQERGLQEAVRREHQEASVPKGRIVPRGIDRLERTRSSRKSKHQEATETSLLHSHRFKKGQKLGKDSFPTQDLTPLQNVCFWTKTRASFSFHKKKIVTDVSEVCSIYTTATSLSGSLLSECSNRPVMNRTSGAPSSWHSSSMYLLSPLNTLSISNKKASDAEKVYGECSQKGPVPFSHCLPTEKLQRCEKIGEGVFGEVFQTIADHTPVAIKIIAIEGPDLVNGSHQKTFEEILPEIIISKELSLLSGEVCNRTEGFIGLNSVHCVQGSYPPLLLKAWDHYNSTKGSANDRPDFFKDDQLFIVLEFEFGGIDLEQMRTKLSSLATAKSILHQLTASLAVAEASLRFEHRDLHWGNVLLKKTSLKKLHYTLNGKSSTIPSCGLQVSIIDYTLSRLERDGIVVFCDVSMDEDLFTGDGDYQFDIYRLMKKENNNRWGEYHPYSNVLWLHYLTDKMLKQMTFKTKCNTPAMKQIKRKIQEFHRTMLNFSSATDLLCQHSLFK
The note with it: read-out: %-inhibition at 1 µmol/L, Haspin.

Test [4] has as its target T3, panel of 255 wild-type kinases (Homo sapiens, UniProt P54762).
T3 sequence (P54762 18-984): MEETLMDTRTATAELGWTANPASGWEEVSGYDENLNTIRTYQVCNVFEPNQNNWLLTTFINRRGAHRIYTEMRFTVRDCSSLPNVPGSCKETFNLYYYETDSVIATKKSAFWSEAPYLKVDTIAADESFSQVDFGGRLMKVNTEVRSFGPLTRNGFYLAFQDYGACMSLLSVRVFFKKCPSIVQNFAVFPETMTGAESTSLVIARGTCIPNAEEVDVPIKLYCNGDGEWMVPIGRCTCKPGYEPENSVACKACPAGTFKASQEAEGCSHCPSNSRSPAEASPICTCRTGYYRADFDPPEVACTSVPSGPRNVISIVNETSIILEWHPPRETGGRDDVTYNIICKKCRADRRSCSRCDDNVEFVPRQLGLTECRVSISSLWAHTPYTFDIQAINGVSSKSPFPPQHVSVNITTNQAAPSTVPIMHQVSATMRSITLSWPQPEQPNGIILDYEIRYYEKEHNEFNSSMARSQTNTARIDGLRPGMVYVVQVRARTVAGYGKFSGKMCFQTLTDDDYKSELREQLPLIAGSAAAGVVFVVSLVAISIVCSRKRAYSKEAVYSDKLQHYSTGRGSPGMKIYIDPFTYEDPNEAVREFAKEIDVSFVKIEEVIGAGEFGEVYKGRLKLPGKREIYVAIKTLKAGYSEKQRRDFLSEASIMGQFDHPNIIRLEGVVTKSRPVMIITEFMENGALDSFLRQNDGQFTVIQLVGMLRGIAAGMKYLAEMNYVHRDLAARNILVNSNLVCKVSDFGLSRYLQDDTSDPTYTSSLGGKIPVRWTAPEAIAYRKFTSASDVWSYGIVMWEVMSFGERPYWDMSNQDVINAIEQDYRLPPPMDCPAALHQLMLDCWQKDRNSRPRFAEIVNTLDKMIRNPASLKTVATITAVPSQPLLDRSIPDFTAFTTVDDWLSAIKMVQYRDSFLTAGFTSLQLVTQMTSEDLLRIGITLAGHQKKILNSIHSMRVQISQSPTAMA
The settings on record: read-out: %-inhibition at 1 µmol/L, EPHB1.

In test [5] the target is panel of 255 wild-type kinases (Homo sapiens, UniProt P53350). The note with it: read-out: %-inhibition at 1 µmol/L, PLK1.
Setting [6] is: kinase PYK2, 1 µmol/L single concentration.
The mark [7] stands for this setting: kinase EPHA1, 1 µmol/L single concentration.
Setting [8] is: kinase Haspin, 1 µmol/L single concentration.
[9] abbreviates: kinase EPHB1, 1 µmol/L single concentration.
[10] abbreviates: kinase PLK1, 1 µmol/L single concentration.

Where two headings read alike, the source gives them in different places.

As for `Cn1cc(-c2cc3c(N4CCN(c5ncc([C@@](C)(N)c6ccc(F)cc6)cn5)CC4)ncnn3c2)cn1` [avapritinib], the inhibition at 1 µM is 1% in test [1] (setting [6]); 51% in test [2] (setting [7]); 59% in test [3] (setting [8]); 65% in test [4] (setting [9]); -1.53% in test [5] (setting [10]).
Take `C[C@H](Nc1ncnc2nc[nH]c12)c1cc2cccc(Cl)c2c(=O)n1-c1ccccc1` [duvelisib]: the inhibition at 1 µM was -3.37% in test [1] (setting [6]); -7% in test [2] (setting [7]); 2% in test [3] (setting [8]); 10% in test [4] (setting [9]); 0.784% in test [5] (setting [10]).
In the same order, the values of `COc1cc2ncnc(Nc3ccc(F)c(Cl)c3)c2cc1NC(=O)/C=C/CN1CCCCC1` [dacomitinib] are 1.4%, 79%, 13%, 45% and 3.78%.
Consider `CCN1CCN(c2ccc(Nc3cc(N(C)C(=O)Nc4c(Cl)c(OC)cc(OC)c4Cl)ncn3)cc2)CC1` [infigratinib], for which the inhibition at 1 µM in test [1] (setting [6]) is 13%; in test [2] (setting [7]) it was -2%; in test [3] (setting [8]), -1.4%; in test [4] (setting [9]), 2.8%; in test [5] (setting [10]) it was 0.613%.
As for `Cn1cnc2c(F)c(Nc3ccc(Br)cc3Cl)c(C(=O)NOCCO)cc21` [selumetinib], the inhibition at 1 µM was -0.622% in test [1] (setting [6]); -2.25% in test [2] (setting [7]); 3.64% in test [3] (setting [8]); -0.927% in test [4] (setting [9]); -4% in test [5] (setting [10]).
For the compound `CNC(=O)c1ccc(-c2cnc3ncc(Cc4ccc5ncccc5c4)n3n2)cc1F` [capmatinib], the inhibition at 1 µM in test [1] was -2.25%; in test [2], -3.32%; in test [3], 37%; in test [4] it was -1.63%; in test [5], -5%.
For `COC(=O)N[C@@H](C)CNc1nccc(-c2cn(C(C)C)nc2-c2cc(Cl)cc(NS(C)(=O)=O)c2F)n1` [encorafenib], the inhibition at 1 µM was 4% in test [1] (setting [6]); 5.42% in test [2] (setting [7]); -5% in test [3] (setting [8]); 3% in test [4] (setting [9]); -2.56% in test [5] (setting [10]).
As for `Cc1cc(Nc2ncnc3ccc(NC4=NC(C)(C)CO4)cc23)ccc1Oc1ccn2ncnc2c1` [tucatinib], the inhibition at 1 µM is 1.48% in test [1] (setting [6]); 21% in test [2] (setting [7]); 0.893% in test [3] (setting [8]); 0.25% in test [4] (setting [9]); -3.69% in test [5] (setting [10]).
Regarding `C=CC(=O)N1CCC([C@@H]2CCNc3c(C(N)=O)c(-c4ccc(Oc5ccccc5)cc4)nn32)CC1` [zanubrutinib], the inhibition at 1 µM in test [1] (setting [6]) is 5.37%; in test [2] (setting [7]) it was -0.68%; in test [3] (setting [8]), -1.75%; in test [4] (setting [9]) it was -2%; in test [5] (setting [10]), -0.741%.
The corresponding values for `Cn1cnc2c(F)c(Nc3ccc(Br)cc3F)c(C(=O)NOCCO)cc21` [binimetinib] are 2.41%, 4%, -15%, 2% and 0.406%.
The corresponding values for `COc1ccc(CN2C3CC2CN(c2ccc(-c4cc(OCC(C)(C)O)cn5ncc(C#N)c45)cn2)C3)cn1` [selpercatinib] are 12%, 79%, -4.63%, 98% and -0.437%.
In the same order, the values of `CCN1C(=O)N(c2c(F)c(OC)cc(OC)c2F)Cc2cnc3[nH]c(CN4CCOCC4)cc3c21` [pemigatinib] are 8%, -4%, -3.7%, -3% and -1.52%.
Take `CN1CCN(c2ccc(C(=O)Nc3n[nH]c4ccc(Cc5cc(F)cc(F)c5)cc34)c(NC3CCOCC3)c2)CC1` [entrectinib]: the inhibition at 1 µM was 96% in test [1] (setting [6]); 88% in test [2] (setting [7]); -2.24% in test [3] (setting [8]); 62% in test [4] (setting [9]); 0.212% in test [5] (setting [10]).
Turning to `CO[C@]1(C(=O)N[C@@H](C)c2ccc(-n3cc(F)cn3)nc2)CC[C@H](c2nc(C)cc(Nc3cc(C)[nH]n3)n2)CC1` [pralsetinib], the inhibition at 1 µM in test [1] (setting [6]) was 64%; in test [2] (setting [7]) it was 66%; in test [3] (setting [8]), 0.149%; in test [4] (setting [9]), 58%; in test [5] (setting [10]), -2.47%.
On to `C[C@H]1Oc2cc(cnc2N)-c2c(nn(C)c2C#N)CN(C)C(=O)c2ccc(F)cc21` [lorlatinib], for which the inhibition at 1 µM was 73% in test [2] (setting [7]), 0.865% in test [3] (setting [8]), 68% in test [4] (setting [9]) and 2.12% in test [5] (setting [10]).
In the case of `CCn1c(=O)c(-c2cc(NC(=O)Nc3ccccc3)c(F)cc2Br)cc2cnc(NC)cc21` [ripretinib], the inhibition at 1 µM in test [1] (setting [6]) was determined as 19%; in test [2] (setting [7]) it was 78%; in test [3] (setting [8]) it was 1.87%; in test [4] (setting [9]), 92%; in test [5] (setting [10]), 4%.
